According to BigSolDB 2.1:

CCCOC(=O)c1cc(O)c(O)c(O)c1
solubility (mole fraction)
Conditions | in acetone | in ethanol | in ethyl acetate | in isobutanol | in isopropanol | in methanol | in methyl acetate | in n-butanol | in n-propanol
293.15 K | 0.291 | 0.182 | 0.222 | 0.189 | 0.253 | 0.226 | 0.244 | 0.243 | 0.264
298.15 K | 0.311 | 0.201 | 0.24 | 0.209 | 0.273 | 0.242 | 0.264 | 0.259 | 0.283
303.15 K | 0.33 | 0.222 | 0.258 | 0.229 | 0.293 | 0.258 | 0.285 | 0.275 | 0.302
308.15 K | 0.35 | 0.244 | 0.276 | 0.25 | 0.314 | 0.276 | 0.306 | 0.293 | 0.321
313.15 K | 0.369 | 0.266 | 0.295 | 0.272 | 0.336 | 0.295 | 0.329 | 0.312 | 0.34
318.15 K | 0.387 | 0.288 | 0.314 | 0.295 | 0.359 | 0.316 | 0.351 | 0.333 | 0.36
323.15 K | 0.404 | 0.311 | 0.333 | 0.319 | 0.383 | 0.339 | 0.375 | 0.356 | 0.382
328.15 K | 0.412 | 0.323 | 0.343 | 0.331 | 0.396 | 0.351 | 0.39 | 0.368 | 0.394
333.15 K | 0.419 | 0.334 | 0.353 | 0.344 | 0.409 | 0.363 | 0.402 | 0.381 | 0.406
